Measurements published in patent publication US6350596B2, “Method for producing L-phenylalanine” (Ajinomoto Co., Inc., priority 2000, dated 2002).

Columns and labels:
[1] = test system: Methylophilus methylotrophus AS-1 (NCIB 10515; ATCC 53528); test: Sensitivity of the wild type strain to phenylalanine analogs on 121(Fe2)-agar medium; assay type: cell-based; conditions: for amount at which the wild type strain (strain AS-1) can not grow: usually, under the conditions described in Examples
From the text: To be resistant to an phenylalanine analog means that the bacterium can grow in the presence of the phenylalanine analog in the amount at which the wild type strain (for example, strain AS-1) can not grow. The amount varies depending on the kinds of the phenylalanine analog.
To be resistant to L-phenylalanine means that the bacterium can grow in the presence of L-phenylalanine in the amount at which the wild type strain (for example, strain AS-1) can not grow. The amount is usually 8 g/l under the conditions described in Examples mentioned below.
To be resistant to cinnamic acid means that the bacterium can grow in the presence of cinnamic acid in the amount at which the wild type strain (for example, strain AS-1) can not grow. The amount is usually 50 mg/l under the conditions described in Examples mentioned below.
The 10^8 c.f.u./ml of M. methylotrophus bacteria were plated and grown at +30° C. for 3 days. […] The several crystals of N-methyl-N′-nitro-N-nitrosoguanidin (hereinafter abbreviated to NG) mutagen was placed in the middle of the plate. After 4-5 days at 30° C., the plates were analyzed.

[2] = test system: M. methylotrophus pFp^R mutant No. 227; test: Growth of pFp^R mutant on agarized 121-medium with L-phenylalanine; assay type: cell-based, Methylophilus methylotrophus; conditions: added into the agarized 121-medium
[3] = test system: Methylophilus methylotrophus pFp^R phe^R mutant strain No. 227-16; assay type: cell-based
From the text: The new mutants which were resistant to 1 g/L of meta-fluorophenylalanine (hereinafter abbreviated to mFp^R) were isolated from the strain No. 227-16 after NG-mutagenesis as it was described above.

Compound	concentration that totally inhibited the growth of the bacteria lawn ([1]; 121(Fe2)-agar medium, 10^8 c.f.u./ml plated, +30° C., 3 days) [mg/mL]	amount at which the wild type strain (strain AS-1) can not grow [1] [g/L]	concentration that totally inhibited the growth [2] [M]	concentration to which the strain was resistant ([3]; strain No. 227-16) [M]	growth of the strain in the presence of the analog ([3]; strain No. 227-16, 1 g/l of the analog)
NC(Cc1ccc(F)cc1)C(=O)O (racemic) [DL-p-fluorophenylalanine]	1	2	–	–	–
N[C@@H](Cc1ccccc1)C(=O)O [L-phenylalanine]	–	8	0.1	0.05	–
O=C(O)C=Cc1ccccc1 [cinnamic acid]	–	0.05	–	–	–
N[C@@H](Cc1cccc(F)c1)C(=O)O [m-fluorophenylalanine]	–	1	–	–	only a slight growth
